The results in this text go back to article doi:10.1101/2023.02.27.530254, “Large library docking for cannabinoid-1 receptor agonists with reduced side effects” (bioRxiv, 2024).

Each structure is given as a SMILES string. “And” between values parts separate entries of the source, which are not always exact repeats. Identical values can stand only once.

For data set [1], the target named is T1, CB1R (Homo sapiens, UniProt P21554, C107A/C139A/C149A/C238A/C355A/C382A/C386A/C415A/C431A/C449A/C98A/R336C).
T1 construct: N-terminal FLAG tag and C-terminal histidine tag was added to human full-length CB1; FLAG (N); histidine tag (C); made in house; host or cells: Spodoptera frugiperda Sf9 (baculovirus)
Briefly: Bimane fluorescence of TM6-labeled minimal cysteine CB1R. The data set is classed as biochemical. Particulars: 10 μM ligand; apo 459 nm. The protocol: A minimal cysteine version of CB1R was generated[73] where all the cysteine residues (except C256 and C264) were mutated to alanine. […] Excess label was removed using size exclusion chromatography on a Superdex 200 10/300 Increase column in 20 mM HEPES pH 7.5, 100 mM NaCl and 0.01% MNG/0.001% CHS. Bimane-labeled CB1R at […] was incubated with ligands (10 μM) for one hour at room temperature. Fluorescence data was collected at room temperature in a 150 μL cuvette with a FluorEssence v3.8 software on a Fluorolog instrument (Horiba) in photon-counting mode. Bimane fluorescence was measured by excitation at 370 nm with excitation and emission bandwidth passes of 4 nm. The emission spectra were recorded from 410 to 510 nm with 1 nm increment and 0.1 s integration time.

Data set [2] has as its system C56BL/6 mice. Briefly: Conditioned place preference. Conditions: mouse, in vivo. How it is done:
To determine if ‘4042 was inherently rewarding or aversive we used the conditioned place paradigm as described. Briefly, mice were first habituated to the test apparatus, twice, and their preference for each chamber recorded for 30 minutes (Pretest). Two conditioning days followed in which mice received the vehicle control or the compound, and 30 minutes later restricted for 30 minutes in the preferred or non-preferred chamber, respectively. On day 5 (Test day), mice were allowed to roam freely between the 3 chambers of the apparatus and their preference for each chamber recorded for 30 minutes. To calculate the CPP score, we subtracted the time spent in each chamber of the box on the Pretest day from that of the Test day (CPP score = Test - Pretest).

For data set [3], the target named is T2, CB1 (Rattus norvegicus, UniProt P20272).
T2 construct: membrane preparations from rat brain (source of CB1); tissue Bioivt RAT00BRAINMZN; host or cells: rat brain
The data set is described as follows: Radioligand competition binding with [3H]-CP-55,940, rat brain membranes. Conditions: for Emax: maximal radioligand displacement, read-out: rCB1 binding Emax [SEM]; for Ki: [3H]-CP-55,940 competition, rat brain membranes. How it is done:
The results were analyzed using nonlinear regression to determine the IC50 and Ki values for each ligand (Prism by GraphPad Software, Inc., San Diego, CA). The Ki values are expressed as the mean of two to three experiments each performed in triplicate.
In general terms: Loss of bound radioactivity is the signal in a displacement assay; it reports binding, not function.

Data set [4] addresses T3, hCB1 (Homo sapiens, UniProt P21554). The data set is described as follows: Cerep HTRF cAMP inhibition assay, hCB1 CHO-K1 cells. The data set is classed as cell-based. How it is done:
The hCB1 CHO-K1 cells are suspended in HBSS buffer (Invitrogen) complemented with 20 mM HEPES (pH 7.4), then distributed in microplates at a density of 5.103 cells/well in the presence of either of the following: HBSS (basal control), the reference agonist at 30 nM (stimulated control) or the test compounds. […] Following 30 min incubation at 37°C, the cells are lysed, and the fluorescence acceptor (D2-labeled cAMP) and fluorescence donor (anti-cAMP antibody labeled with europium cryptate) are added. […] Each measurement was done in triplicate.
Background: In TR-FRET formats the signal depends on donor and acceptor labels being close together.

For data set [5], the target named is T3, hCB1. Briefly: DiscoverX PathHunter β-arrestin-2 recruitment assay. Type of data set: cell-based. Particulars: hCB1 DiscoverX ß-arrestin recruitment EC50 [95% CI]. How it is done: PathHunter cell lines (CHO-K1 lineage expressing hCB1) were expanded from freezer stocks according to standard procedures. Cells were seeded in a total volume of 20 μL into white walled, 384-well microplates and incubated at 37°C for the appropriate time prior to testing. For agonist determination, cells were incubated with sample to induce response. Intermediate dilution of sample stocks was performed to generate 5X sample in assay buffer. 5 μL of 5X sample was added to cells and incubated at 37°C or room temperature for 90 to 180 minutes. Vehicle concentration was 1%. […] Microplates were read following signal generation with a PerkinElmer EnvisionTM instrument for chemiluminescent signal detection. Compound activity was analyzed using CBIS data analysis suite (ChemInnovation, CA).
The data were analyzed in GraphPad Prism 9.1 using “dose–response-stimulation log(agonist) versus response (four parameters)” and data were presented as EC50 or pEC50 ± CIs of one independent experiment in duplicate.
Background: Arrestin recruitment assays detect the binding of arrestin to an activated receptor.

The target in data set [6] is T4, hCB2 (Homo sapiens, UniProt P34972). Briefly: Cerep cAMP assay. Type of data set: cell-based.
The target of data set [7] is T3, hCB1. The data set is described as follows: Tango β-arrestin-2 recruitment assay, HTLA cells. Type of data set: cell-based. Also on record: expressed in transfected cells. The protocol:
(§1) The Tango β-arrestin-2 recruitment assays were performed as described. In brief, HTLA cells were transiently transfected with human CB1R or CB2R Tango DNA construct overnight in DMEM supplemented with 10 % FBS, 100 μg ml−1 streptomycin and 100 U ml−1 penicillin. The transfected cells were then plated into poly-L-lysine-coated 384-well white clear-bottom cell culture plates in DMEM containing 1% dialysed FBS at a density of 10,000–15,000 cells per well. After incubation for 6 h, the plates were added with drug solutions prepared in DMEM containing 1% dialysed FBS for overnight incubation. On the day of assay, medium and drug solutions were removed and 20 μl per well of BrightGlo reagent (Promega) was added. The plates were further incubated for 20 min at room temperature and counted using the Wallac TriLux Microbeta counter (PerkinElmer). The results were analysed using GraphPad Prism 9.1. Each experiment was performed in triplicate and functional […] values were determined from the mean of three independent experiments.

The target of data set [8] is T4, hCB2. The data set is described as follows: Tango β-arrestin-2 recruitment assay, HTLA cells. Also on record: expressed in transfected cells; host or cells: HTLA (transient). Type of data set: cell-based. How it is done:
as §1

For data set [9], the target named is T3, hCB1. Briefly: Lance Ultra cAMP accumulation assay (inhibition of forskolin-stimulated cAMP), CHO cells. Also on record: expressed in transfected cells. Type of data set: cell-based. How it is done: The inhibition of forskolin-stimulated cAMP accumulation assays was carried out using PerkinElmer’s Lance Ultra cAMP kit following the manufacturer’s protocol. In brief, CHO cells stably expressing human CB1R were harvested by incubation with Versene (ThermoFisher Scientific, Waltham, MA) for 10 min, washed once with Hank’s Balanced Salt Solution, and resuspended in stimulation buffer at ~200 cells/μL density. The ligands at eight different concentrations (0.001–10,000 nM) in stimulation buffer (5 μL) containing forskolin (2 μM final concentration) were added to a 384-well plate followed by the cell suspension (5 μL; ~1000 cells/well). The plate was incubated for 30 min at room temperature. Eu-cAMP tracer (5 μL) and Ulight-anti-cAMP (5 μL) working solutions were then added to each well, and the plate was incubated at room temperature for an additional 60 min. Results were measured on a Perkin-Elmer EnVision plate reader. The EC50 values were determined by nonlinear regression analysis using Prism software (GraphPad Software, Inc., San Diego, CA) and are expressed as the mean of three experiments, each performed in triplicate.

In data set [10] the target is T3, hCB1. The data set is described as follows: bioSens-All ebBRET effector biosensor signaling profiling, HEK293. Type of data set: cell-based. Also on record: host or cells: HEK293 (HEK293SL clone), transient. How it is done: ebBRET-based effector membrane translocation biosensor assays were conducted at Domain Therapeutics NA Inc. (Montreal, QC, Canada) as previously described. […] HEK293 cells were maintained in Dulbecco’s Modified Eagle Medium (DMEM) (Wisent) supplemented with 1% penicillin- streptomycin (Wisent) and 10% (or 2 % for transfection) fetal bovine serum (Wisent) at 37°C with 5% CO2. All biosensor-coding plasmids and related information are the property of Domain Therapeutics NA Inc. The total amount of transfected DNA was adjusted and kept constant at 1 μg per mL of cell culture to be transfected using salmon sperm DNA (Invitrogen) as ‘carrier’ DNA, PEI (polyethylenimine 25 kDa linear, PolyScience) and DNA (3:1 ml PEI:mg DNA ratio) were first diluted separately in 150 mM NaCl then mixed and incubated for at least 20 minutes at room temperature to allow for the formation of DNA/PEI complexes. During the incubation, HEK293 cells were detached, counted, and re-suspended in maintenance medium to a 350,000 cells per mL density. At the end of the incubation period, the DNA/PEI mixture was added to the cells. Cells were finally distributed in 96-well plates (White Opaque 96-well /Microplates, Greiner) at a density of 35,000 cells per well. Forty-eight hours post-transfection, medium was aspirated and replaced with 100 μl of Hank’s Balanced Salt Solution buffer (HBSS) (Wisent) per well using 450-Select TS Biotek plate washer. After 60 min incubation in this medium, 10 μL of 10 μM e-Coelenterazine Prolume Purple (Methoxy e-CTZ) (Nanolight) was added to each well for a final concentration of 1 μM immediately followed by addition of increasing concentrations of the test compounds to each well using the HP D300 digital dispenser (Tecan). All compounds were assayed at 22 concentrations with each biosensor after a 10-minute room temperature incubation period. […] All BRET ratios were standardized using the universal BRET (uBRET) equation: uBRET=BRETratio-A/B-A×10,000 where A is the BRET ratio obtained from transfection of negative control and B is the BRET ratio obtained from transfection of positive control. […] The data were analyzed using the four-parameter logistic non-linear regression model in GraphPad Prism 9.1 and data were presented as means ± CIs of 1–4 independent experiments.
The SEM was calculated for the logEmax/EC50 ratios using the following equation: SEM=σ/n where σ is the standard deviation, and n is the number of experiments.

T3 sequence (P21554 whole entry): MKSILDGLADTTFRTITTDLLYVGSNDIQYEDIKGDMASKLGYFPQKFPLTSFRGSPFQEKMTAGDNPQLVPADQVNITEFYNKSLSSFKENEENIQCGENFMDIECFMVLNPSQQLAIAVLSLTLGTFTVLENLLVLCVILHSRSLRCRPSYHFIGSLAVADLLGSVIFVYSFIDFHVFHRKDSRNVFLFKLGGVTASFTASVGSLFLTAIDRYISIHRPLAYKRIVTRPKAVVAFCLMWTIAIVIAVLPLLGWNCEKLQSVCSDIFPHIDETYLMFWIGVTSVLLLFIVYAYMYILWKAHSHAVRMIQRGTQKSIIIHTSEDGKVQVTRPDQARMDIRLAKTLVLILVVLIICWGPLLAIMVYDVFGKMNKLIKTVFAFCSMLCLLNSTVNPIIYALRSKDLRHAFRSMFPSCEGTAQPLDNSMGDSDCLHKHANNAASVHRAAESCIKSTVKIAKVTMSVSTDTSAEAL
T2 sequence (P20272 whole entry): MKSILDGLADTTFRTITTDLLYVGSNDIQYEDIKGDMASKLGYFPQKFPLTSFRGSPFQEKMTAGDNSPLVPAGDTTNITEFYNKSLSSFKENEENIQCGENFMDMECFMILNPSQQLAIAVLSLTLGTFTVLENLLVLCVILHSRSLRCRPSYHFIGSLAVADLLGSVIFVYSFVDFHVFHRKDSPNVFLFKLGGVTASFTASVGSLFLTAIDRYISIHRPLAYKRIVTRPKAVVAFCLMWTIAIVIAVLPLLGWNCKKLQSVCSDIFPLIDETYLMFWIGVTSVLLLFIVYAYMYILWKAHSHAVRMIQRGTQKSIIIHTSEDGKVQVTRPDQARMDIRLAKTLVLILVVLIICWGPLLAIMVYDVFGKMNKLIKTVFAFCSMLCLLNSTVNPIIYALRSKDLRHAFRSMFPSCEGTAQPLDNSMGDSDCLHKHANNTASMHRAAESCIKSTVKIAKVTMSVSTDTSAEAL
T4 sequence (P34972 whole entry): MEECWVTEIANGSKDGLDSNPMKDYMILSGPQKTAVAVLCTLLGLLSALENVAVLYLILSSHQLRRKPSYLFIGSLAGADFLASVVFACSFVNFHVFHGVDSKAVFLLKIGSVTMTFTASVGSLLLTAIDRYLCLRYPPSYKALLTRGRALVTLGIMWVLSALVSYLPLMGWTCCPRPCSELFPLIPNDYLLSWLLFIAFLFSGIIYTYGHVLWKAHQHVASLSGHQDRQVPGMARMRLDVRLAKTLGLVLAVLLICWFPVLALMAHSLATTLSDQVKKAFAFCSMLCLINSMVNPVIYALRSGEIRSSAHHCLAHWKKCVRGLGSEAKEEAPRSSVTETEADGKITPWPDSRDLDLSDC
T1 sequence (P21554 whole entry C98A/C107A/C139A/C149A/C238A/R336C/C355A/C382A/C386A/C415A/C431A/C449A): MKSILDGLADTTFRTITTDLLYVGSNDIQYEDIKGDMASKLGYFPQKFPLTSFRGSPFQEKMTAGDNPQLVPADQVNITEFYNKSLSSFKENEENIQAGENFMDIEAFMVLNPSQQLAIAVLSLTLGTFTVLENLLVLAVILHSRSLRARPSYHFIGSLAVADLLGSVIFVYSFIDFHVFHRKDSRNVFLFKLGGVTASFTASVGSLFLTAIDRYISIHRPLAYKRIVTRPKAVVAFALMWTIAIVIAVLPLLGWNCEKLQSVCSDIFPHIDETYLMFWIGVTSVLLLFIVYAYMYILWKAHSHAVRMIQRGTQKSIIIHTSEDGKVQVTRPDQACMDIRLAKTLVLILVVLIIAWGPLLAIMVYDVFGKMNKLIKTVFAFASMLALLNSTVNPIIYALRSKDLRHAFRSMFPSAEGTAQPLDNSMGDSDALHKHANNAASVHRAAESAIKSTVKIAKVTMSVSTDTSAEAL

Regarding `COC(=O)[C@@H](NC(=O)c1nn(Cc2ccc(F)cc2)c2ccccc12)C(C)(C)C` [MDMB-fubinaca, reference compound], in data set [1], the “bimane spectrum λmax” value was 465 nm.
For the compound `CN1CC[C@]23c4c5ccc(O)c4O[C@H]2[C@@H](O)C=C[C@H]3[C@H]1C5` [morphine, reference compound], the conditioned place preference result in data set [2] was “significantly increased their preference”.
In the case of `Cc1cc(C(=O)N2CC3(CCC3)C2C2CCCO2)nn1-c1cccc(C(F)(F)F)c1` (stereo not shown) [‘3737], the Emax in data set [3] was 112%; in data set [4] (CHO-K1, read-out: hCB1 Cerep cAMP Emax [95% CI]), 99%; in [6] (read-out: hCB2 Cerep cAMP Emax [95% CI]), 45%; in data set [8] (HTLA, read-out: hCB2 Tango ß-arrestin recruitment Emax [95% CI]), 9%. The same compound had a Ki in data set [3] (rCB1 binding Ki [95% CI]) of 173 nM. The EC50 in data set [4] was 326 nM; in data set [5], more than 10 µM; in data set [6], 4.3 nM; in data set [7], more than 10 µM; in data set [8], 1500 nM.
Take `COC(=O)[C@](C)(NC(=O)c1cc(C)n(-c2cccc(C(F)(F)F)c2)n1)c1cccs1` [‘8690]: the Emax in [3] was determined as 100%; in [9] (CHO, read-out: hCB1 Lance Ultra cAMP Emax [95% CI]), 53%; in [10] (HEK293, read-out: hCB1 Gi1 Emax [95% CI]) it was 82%; in data set [10] (HEK293, read-out: hCB1 GoB Emax [95% CI]), 83%; in data set [10] (HEK293, read-out: hCB1 Gz Emax [95% CI]), 98%. Also, the Ki in data set [3] (rCB1 binding Ki [95% CI]) is 90 nM and 90.2 nM; in [3] (rCB1 binding pKi [95% CI]) it was 79.4 nM. The “bimane spectrum λmax” value in data set [1] stood at 459 nm. Also, the concentration for a half-maximal effect (EC50) in [9] was 473 nM; in data set [10] (hCB1 Gi1 EC50 [95% CI], Gi1 sensor) it was 19.1 nM; in data set [10] (hCB1 GoB EC50 [95% CI], GoB sensor), 18 nM; in data set [10] (hCB1 GoB pEC50 [95% CI], GoB sensor), 15.8 nM; in data set [10] (hCB1 Gz EC50 [95% CI], Gz sensor), 33 nM.

What is called Emax is the maximal effect, on the per cent scale that the assay sets. As usually defined, the Ki is the equilibrium dissociation constant of an inhibitor or competing ligand from its target. Higher therefore signals a looser hold on the target. One may read the EC50 as the midpoint of the concentration-response curve. Read a high EC50 as a less potent agent.
